From patent US12576169B2, “Silicon-fluoride acceptor substituted radiopharmaceuticals and precursors thereof” (Technische Universität München, priority 2019, dated 2026) come the findings set out here.

A short description of series [1]: n-Octanol-PBS partition coefficient (logD7.4). The class given is physicochemical. As to conditions: 18F-labeled ligand; n-octanol/PBS pH=7.4; mean ± SD (n = 5). The method, then:
Approx. 0.5 MBq of the ^18F-labeled SiFA-PSMA ligand were added into a test tube containing n-octanol (500 μL) and PBS (500 μL, pH=7.4). After vigorously shaking the two-phase mixture for 3 min at rt, the test tube was centrifuged at 9.000 rpm for 5 min to achieve quantitative phase separation. Finally, 150 μL of each layer were pipetted off and measured for activity using a gamma counter. After repeating the experiment for at least five times, the n-octanol-PBS partition coefficient log D7.4 was calculated according to following formula.

The next series relates to LNCaP cells. Nature of the series: Internalization of 18F-labeled ligands into LNCaP cells. The class given is cell-based, human. As to conditions: internalized activity at 1 h in % of reference [125I]XII; c = 0.5 nM; LNCaP cells (125.000 cells/well); 37° C., DMEM/F-12 add. 5% BSA; corrected for non-specific binding (10 μm PMPA); mean ± SD (n = 3). The method, then:
LNCaP cells were grown in DMEM/F-12 (add. 10% FCS, v/v) and maintained at 37° C. in a humidified 5% CO2 atmosphere. […] Subsequent to the removal of the culture medium, cells were washed with DMEM-F12 (add. 5% BSA, v/v, 500 μL) and left to equilibrate in DMEM-F12 (add. 5% BSA, v/v, 200 μL) at 37° C. for 15 min. Each well was treated with either DMEM-F12 (add. 5% BSA, v/v, 25 μL) or a 2-(phosphonomethyl)-pentandioic acid (PMPA) solution (100 μM in PBS, 25 μL) for blockade. Afterwards, the ^18F-labeled SiFA-PSMA ligand (5 nM in PBS, 25 μL) was added and the cells were incubated for 1 h at 37° C. The experiment was terminated by placing the 24-well plate on ice for 3 min and removal of the assay medium. Each well was rinsed with HBSS (4° C., 250 μL) and the fractions were combined with the previous assay medium, representing the amount of unbound radioligand. For removal of surface bound activity, LNCaP cells were incubated with PMPA solution (10 μM in PBS, 4° C., 250 μL) for 5 min and rinsed again with PBS (250 μL, 4° C.). The internalized activity was determined by incubation of LNCaP cells with 1 M aq. NaOH (250 μL) for at least 10 min and combination with the fraction of a subsequent wash step with 1 M aq. NaOH (200 μL). Each experiment (control and blockade) was performed in triplicate. […] All internalization studies were accompanied by reference studies using the reference compound XII (2 nM in HBSS add. 1% BSA, v/v), which were performed analogously. Data were corrected for non-specific internalization and normalized to the specific-internalization observed for the radioiodinated reference compound.

Series [2] concerns the target T1, human serum albumin (HSA) (Homo sapiens, UniProt P02768).
T1 construct: purchased H13H-2433
The experiment in a line: Binding to HSA on a Chiralpak HSA column. The series is classed as in vitro ADME. As to conditions: calibration with nine reference substances. Here is the method: For the determination of human serum albumin (HSA) binding, a Chiralpak HSA column (50×3 mm, 5 μm, H13H-2433) was used at a constant flow rate of 0.5 mL/min. The mobile phase composed of a 50 mM NH4OAc solution in water with pH=7 (solvent C) and isopropanol (solvent D) was freshly prepared for each experiment and used only once. The reference substances (Table 1) as well as the analyzed SiFA-PSMA ligands were dissolved in a mixture of solvent C/solvent D (1:1, v/v, 0.5 mg/mL) and eluted from the HSA column (0-3 min: 100% C, 3-20 min: 20% D in C, λ=254 nm). The column was kept at rt and each run was stopped after detection of the signal to reduce the acquisition time. The nine reference substances display an HSA binding range of 13% to 99% and were injected consecutively in order to establish a sigmoidal calibration curve with the software OriginPro 2018b (FIG. 1).

In another series the target is PSMA (Homo sapiens, UniProt Q04609). The experiment in a line: IC50 determination: PSMA binding affinity, competition with [125I]XII on LNCaP cells. As to conditions: LNCaP cells (150.000 cells/well); reference [125I]XII c = 0.2 nM; 1 h, 4° C., HBSS add. 1% BSA; mean ± SD (n = 3).

Each structure is given as a SMILES string. *1 amine or outer side, *2 acyl side, *3 side chain or, on linkers, in order; H or OH if unused. Where a SMILES comes first, the peptide text is derived from it. Side-chain parts run from the residue outwards. [ ]: non-standard residue; d: D form. The star is where a group is joined. X1 = O=C(O)CC[C@H](NC(=O)N[C@@H](CCC(=O)N[C@H](CCCN*)C(=O)O)C(=O)O)C(=O)O; Benzoyl(4-SiFtBu2) = CC(C)(C)[Si](F)(c1ccc(C(=O)*)cc1)C(C)(C)C; Suc = O=C(CCC(=O)[*:2])[*:1]; dOrn = NCCC[C@@H](N)C(=O)O; dDap = NC[C@@H](N)C(=O)O Bounds are passed on as bounds.

PSMA, sequence (Q04609 whole entry): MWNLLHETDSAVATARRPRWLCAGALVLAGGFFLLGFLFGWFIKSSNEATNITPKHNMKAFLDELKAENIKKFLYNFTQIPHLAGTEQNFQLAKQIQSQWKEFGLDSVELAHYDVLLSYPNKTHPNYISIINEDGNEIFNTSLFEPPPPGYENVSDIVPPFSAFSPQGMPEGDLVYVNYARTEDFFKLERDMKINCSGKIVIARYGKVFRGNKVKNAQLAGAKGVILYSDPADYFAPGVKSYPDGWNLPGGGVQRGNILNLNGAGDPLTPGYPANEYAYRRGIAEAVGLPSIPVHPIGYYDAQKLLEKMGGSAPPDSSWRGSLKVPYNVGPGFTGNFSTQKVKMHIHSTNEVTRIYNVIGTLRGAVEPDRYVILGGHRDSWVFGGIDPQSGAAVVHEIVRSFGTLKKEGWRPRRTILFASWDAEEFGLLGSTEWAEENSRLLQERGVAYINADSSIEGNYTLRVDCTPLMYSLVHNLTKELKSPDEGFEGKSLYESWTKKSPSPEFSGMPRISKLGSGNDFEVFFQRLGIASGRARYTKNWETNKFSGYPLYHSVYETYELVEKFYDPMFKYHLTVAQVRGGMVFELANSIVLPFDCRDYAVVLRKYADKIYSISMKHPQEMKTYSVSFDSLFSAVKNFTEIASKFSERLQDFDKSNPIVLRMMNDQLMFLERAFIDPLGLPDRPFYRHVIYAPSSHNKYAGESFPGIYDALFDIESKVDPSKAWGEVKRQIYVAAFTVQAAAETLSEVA
T1 sequence (P02768 25-609): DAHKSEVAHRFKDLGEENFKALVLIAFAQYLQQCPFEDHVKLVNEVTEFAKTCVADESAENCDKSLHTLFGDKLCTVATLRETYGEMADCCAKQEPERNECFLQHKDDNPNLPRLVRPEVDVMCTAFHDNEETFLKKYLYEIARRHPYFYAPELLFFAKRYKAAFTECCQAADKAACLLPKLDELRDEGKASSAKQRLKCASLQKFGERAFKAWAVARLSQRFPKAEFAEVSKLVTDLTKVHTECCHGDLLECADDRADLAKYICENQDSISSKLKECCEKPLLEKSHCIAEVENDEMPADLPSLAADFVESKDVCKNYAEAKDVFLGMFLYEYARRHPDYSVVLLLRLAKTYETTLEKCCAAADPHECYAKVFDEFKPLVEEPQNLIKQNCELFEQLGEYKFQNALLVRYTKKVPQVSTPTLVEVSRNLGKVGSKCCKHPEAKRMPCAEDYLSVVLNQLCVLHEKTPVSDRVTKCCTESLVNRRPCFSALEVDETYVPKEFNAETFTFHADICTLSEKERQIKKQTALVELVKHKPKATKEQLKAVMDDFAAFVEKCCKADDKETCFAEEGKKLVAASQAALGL
Procedure for PSMA: LNCaP cells were grown in Dulbecco's Modified Eagle Medium/Nutrient Mixture F-12 (DMEM/F-12, add. 10% fetal calf serum (FCS), v/v) and maintained at 37° C. in a humidified 5% CO2 atmosphere. […] After removal of the culture medium, LNCaP cells were treated with HBSS (add. 1% BSA, v/v, 4° C., 500 μL) and subsequently left 15 min on ice for equilibration in HBSS (add. 1% BSA, v/v, 4° C., 200 μL). […] For the control series, HBSS (add. 1% BSA, v/v, 25 μL) was used instead of the SiFA-PSMA ligand solution. Each concentration and the control were prepared in triplicate. After 1 h incubation on ice, the assay medium was removed and cells were washed with HBSS (200 μL, 4° C.). […] NaOH (200 μL) for at least 10 min and the resulting cell lysate was removed. The wells were treated again with 1 M aq. […] The experiment was repeated for at least three times and the IC50 value calculated using the GraphPad PRISM 8.0.2 software (Graphpad Software Inc., La Jolla, United States).

In turn, `CC(C)(C)[Si](F)(c1ccc(C(=O)NC[C@@H](NC(=O)[C@H](CCC(=O)O)NC(=O)CC[C@H](NC(=O)N[C@@H](CCC(=O)O)C(=O)O)C(=O)O)C(=O)N[C@H](CCCCNC(=O)CCC(=O)NCCC[C@@H](NC(=O)CC[C@H](NC(=O)N[C@@H](CCC(=O)O)C(=O)O)C(=O)O)C(=O)O)C(=O)O)cc1)C(C)(C)C` [SiFA-PSMA ligand 01 c] showed a logD7.4 in series [1] of −3.72 ± 0.02. Moreover, the Internalization in the series on LNCaP cells is 175.08 ± 5.93%. Further, the “Binding to HSA” value in series [2] is not below 98.9%. On PSMA, this compound yielded an IC50 of 17 ± 0.9 nM.

Turning to `CC(C)(C)[Si](F)(c1ccc(C(=O)NC[C@@H](NC(=O)[C@@H](CCC(=O)O)NC(=O)CC[C@H](NC(=O)N[C@@H](CCC(=O)O)C(=O)O)C(=O)O)C(=O)N[C@H](CCCCNC(=O)CCC(=O)NCCC[C@@H](NC(=O)CC[C@H](NC(=O)N[C@@H](CCC(=O)O)C(=O)O)C(=O)O)C(=O)O)C(=O)O)cc1)C(C)(C)C` [SiFA-PSMA ligand 01 b], the logD7.4 in series [1] is −4.04 ± 0.08. In addition, in the series with LNCaP cells, the Internalization stood at 126.43 ± 4.23%. For the same compound, the “Binding to HSA” value in series [2] was not below 99.0%. Moreover, the IC50 on PSMA worked out at 11.8 ± 2.2 nM.

`CC(C)(C)[Si](F)(c1ccc(C(=O)NC[C@@H](NC(=O)[C@@H](CC(=O)O)NC(=O)CC[C@H](NC(=O)N[C@@H](CCC(=O)O)C(=O)O)C(=O)O)C(=O)N[C@H](CCCCNC(=O)CCC(=O)NCCC[C@@H](NC(=O)CC[C@H](NC(=O)N[C@@H](CCC(=O)O)C(=O)O)C(=O)O)C(=O)O)C(=O)O)cc1)C(C)(C)C` [SiFA-PSMA ligand 01 a] came in with a logD7.4 in series [1] of −4.02 ± 0.04. Further, the Internalization in the series with LNCaP cells is 162.54 ± 7.08%. Further, the “Binding to HSA” value in series [2] is not below 99.0%. This compound also had an IC50 on PSMA of 7.8 ± 0.8 nM.

Take `CC(C)(C)[Si](F)(c1ccc(C(=O)NC[C@@H](NC(=O)[C@@H](CCCN)NC(=O)[C@@H](CCC(=O)O)NC(=O)[C@H](N)CCC(=O)O)C(=O)N[C@H](CCCCNC(=O)CCC(=O)NCCC[C@@H](NC(=O)CC[C@H](NC(=O)N[C@@H](CCC(=O)O)C(=O)O)C(=O)O)C(=O)O)C(=O)O)cc1)C(C)(C)C` [SiFA-PSMA ligand 03 e] (H-[dE][dE][dOrn][dDap](Benzoyl(4-SiFtBu2))[dK]([Suc-X1])-OH): the logD7.4 in series [1] is −3.40 ± 0.17. Moreover, the Internalization in the series with LNCaP cells turned out to be 111.98 ± 3.90%. Also, the “Binding to HSA” value in series [2] is on record as 97.5%. This compound had an IC50 on PSMA of 8.5 ± 1.2 nM.

In series [1], `CC(C)(C)[Si](F)(c1ccc(C(=O)NC[C@@H](NC(=O)[C@@H](CCCNC(N)=O)NC(=O)CC[C@H](NC(=O)N[C@@H](CCC(=O)O)C(=O)O)C(=O)O)C(=O)N[C@H](CCCCNC(=O)CCC(=O)NCCC[C@@H](NC(=O)CC[C@H](NC(=O)N[C@@H](CCC(=O)O)C(=O)O)C(=O)O)C(=O)O)C(=O)O)cc1)C(C)(C)C` [SiFA-PSMA ligand 01 d] gave a logD7.4 of −3.28 ± 0.03. The Internalization in the series on LNCaP cells was 95.68 ± 9.86%. In series [2], the “Binding to HSA” value is on record as not below 98.9%. Besides, the IC50 on PSMA was 13 ± 1.2 nM.

`CC(C)(C)[Si](F)(c1ccc(C(=O)NC[C@@H](NC(=O)CNC(=O)[C@@H](CCC(=O)O)NC(=O)[C@H](N)CCC(=O)O)C(=O)N[C@H](CCCCNC(=O)CCC(=O)NCCC[C@@H](NC(=O)CC[C@H](NC(=O)N[C@@H](CCC(=O)O)C(=O)O)C(=O)O)C(=O)O)C(=O)O)cc1)C(C)(C)C` [SiFA-PSMA ligand 03 g] came in with a logD7.4 in series [1] of −3.56 ± 0.04. The Internalization in the series on LNCaP cells was 121.44 ± 3.72%. In addition, the “Binding to HSA” value in series [2] is 98.4%. Further, on PSMA, the IC50 was found to be 11.9 ± 2 nM.

Compound `CC(C)(C)[Si](F)(c1ccc(C(=O)NC[C@@H](NC(=O)[C@@H](CCCCN)NC(=O)CC[C@H](NC(=O)N[C@@H](CCC(=O)O)C(=O)O)C(=O)O)C(=O)N[C@H](CCCCNC(=O)CCC(=O)NCCC[C@@H](NC(=O)CC[C@H](NC(=O)N[C@@H](CCC(=O)O)C(=O)O)C(=O)O)C(=O)O)C(=O)O)cc1)C(C)(C)C` [SiFA-PSMA ligand 01 g] had a logD7.4 in series [1] of −3.71 ± 0.03. Further, in the series on LNCaP cells, the Internalization was 104.75 ± 4.37%. In series [2], the “Binding to HSA” value is 98.9%. The compound further had a 50% inhibitory concentration (IC50) on PSMA of 8.7 ± 0.7 nM.
